In US20120135089A1, “E3 LIGASE INHIBITORS” (priority 2009, published 2012):
pEC50: −log10 of the molar value. “And” between values parts separate entries of the source, which are not always exact repeats. Identical values can stand only once. Like-named read-outs stand apart in the source and are kept apart here.

Columns and labels:
[1] = biological target: T1, Mdm2-luciferase fusion protein (Homo sapiens, UniProt Q00987); assay: cell-based Mdm2 auto-ubiquitination luminescence assay, Mdm2-luciferase cell line; settings: for luminescence of the Mdm2-luciferase cell line: 384-well format
T1 construct: Using full-length Mdm2 allowed for the presence of all domains of Mdm2; expressed in transfected cells
Description: (§1) Cells were plated in 384-well format and treated with MG132 (2 hours) or cycloheximide (30 minutes). Steadylite luminescence buffer (PerkinElmer) was added and the relative luminescence levels determined on a Victor3 Plate Reader. Each graph represents the median of 5 replicates normalized to a no treatment control, and one standard deviation is shown. […] The graphs and EC50 values were determined using Graphpad PRISM®. […] U2OS, RKO, and HCT116 cells (p53 wild-type) were incubated with 5 μg/ml (14 μM) of MEL23, 5 μg/ml (15 μM) of MEL24, or 10 μM of MG132 for 6 hours. Cells were lysed and analyzed by Western blotting using anti-Mdm2, anti-p53, and anti-eIF4E antibodies. NT indicates a no treatment control. […] MCF7 cells (p53 wild-type) were incubated with 30 μg/ml (51 μM) etoposide alone or in combination with 50 μM AlIn or 5 μg/ml (14 μM) MEL23, or 5 μg/ml (15 μM) MEL24 for 16 hours. Cells were lysed and analyzed by Western blotting using anti-MDMX and anti-actin antibodies.
The Mdm2-luciferase cell line was seeded at 7,500 cells per well, in 384-well white plates (PerkinElmer, Waltham, Mass., Cat. No. 6007688), in 27 μl of media (DMEM with FBS and P/S). Assay plates with cells were incubated at 37° C. overnight to allow cells to adhere. After 24 hours, 2 μl from the ‘mother’ plate (4 mg/ml) was transferred to a ‘daughter plate’ containing 148 μl media in order to dilute the compound 1:75. Next, 3 μl from each well of the ‘daughter plates’ was added to triplicate assay plates for a final concentration of 5.33 μg/ml. Assay plates were incubated at 37° C. for 2 hours. Then the cells were lysed with the addition of 30 μl of luminescence buffer (PerkinElmer, Cat. No. 6016989), and the plates were incubated at room temperature for 30 minutes before being analyzed on a Victor3 Plate Reader (PerkinElmer) for luminescence. […] All repurchased compounds were tested in a 2-fold dilution series via the same protocol as the primary screening. All transfers were conducted using a BioMek (Beckman Coulter, Fullerton, Calif.). […] This was determined by comparing the negative control, no treatment, to the positive control, 10 μM MG132.
To identify Mdm2 E3 ligase inhibitors, a high-throughput cellular assay to measure changes in Mdm2 auto-ubiquitination and degradation was designed. This assay took advantage of the fact that Mdm2 can regulate itself in cells through ubiquitination and degradation (8). Two fusion proteins were constructed for the assay: (a) a wild-type Mdm2-luciferase fusion protein, which can auto-ubiquitinate and thereby target itself for degradation; and (b) a mutant Mdm2(C464A)-luciferase fusion protein. Both fusion proteins were constructed with luciferase N-terminal to Mdm2. The C464A mutation disrupts a metal binding site in the RING domain, thereby preventing Mdm2 E3 ligase activity (8). Small molecules that increase the luminescence of the Mdm2-luciferase fusion protein without increasing the luminescence of the Mdm2(C464A)-luciferase fusion protein are likely inhibiting Mdm2 E3 ligase activity or the proteasomal degradation of Mdm2. Alternatively, small molecules that increase the luminescence of both fusion proteins are likely affecting transcription, translation, or have a general cellular impact that is not dependent on the E3 ligase activity of Mdm2 or proteasomal degradation.

p53 ubiquitination = assay: cell-based p53 ubiquitination assay in H1299 cells; set-up: species or system human; settings: H1299 transfected with p53, Mdm2, ubiquitin; 10 μg/ml pre-treatment, 10 μM MG132
Description: To obtain the results shown in FIG. 4A, Mdm2-luciferase cells were transfected with ubiquitin-HA and treated 8 hours later with 10 μg/ml (28 μM) MEL23, 10 μg/ml (31 μM) MEL24, or a DMSO control. After 16 hours, cells were additionally treated with 10 μM MG132 or a DMSO control. After 3 hours, cells were lysed and immunoprecipitated for 3 hours with anti-HA affinity matrix. Total lysates and immunoprecipitated samples were analyzed by Western blotting using anti-Mdm2 antibody. NT indicates a no treatment control. […] After 8 hours, cells were treated with 10 μg/ml (28 μM) MEL23, 10 μg/ml (31 μM) MEL24, or a DMSO control. After 16 hours, cells were additionally treated with 10 μM MG132 or a DMSO control. After 3 hours cells were lysed and analyzed by Western blotting using anti-p53 antibody. “p53-Ub” indicates the slower migrating species of the protein that are the ubiquitin-conjugated forms.
To test the effects of the MEL compounds on p53 ubiquitination, H1299 cells were transfected with plasmids expressing p53, Mdm2, and ubiquitin and pre-treated with 10 μg/ml MEL23 or MEL24, followed by treatment with 10 μM MG132. Ubiquitination of p53 was analyzed by Western blotting. […] In fact, the half-life of p53 increased from an hour to greater than 6 hours with 5 μg/ml MEL23 treatment (FIG. 32). Thus, treatment with MEL23 and MEL24 inhibits ubiquitin conjugation to Mdm2 and p53.

MdmX = assay: etoposide-induced MdmX degradation in MCF7 cells (Western blot); type: cell-based, human; settings: etoposide 30 μg/ml, 16 hours
Description: as §1
Cells were seeded and treated with the indicated compound(s). Cells were lysed after each time point in a buffer of 50 mM TrisHCl pH 7.5, 200 mM NaCl, 0.5% NP-40, and 1 complete mini EDTA-free protease inhibitor cocktail tablet per 10 mL of buffer (Roche, Cat. No. 8360170). Protein content was quantified using a Biorad protein assay reagent (Bio-Rad Laboratories, Hercules, Calif., Cat. No. 500-0006). SDS sample buffer was added to the samples, and the mixture was boiled for 5 minutes. Equal amounts of protein were resolved on a 1D SDS-PAGE gel. Following separation proteins were transferred to nitrocellulose membrane, blocked with 5% milk, and then incubated with primary antibody overnight at 4° C. The membrane was incubated with secondary-HRP antibody for 45 minutes at room temperature and developed with SuperSignal West Pico Substrate (Pierce, Rockford, Ill., Cat. No. 34080).

[2] = test system: RKO, RKO E6, H1299 and MEF's; assay: cell cycle analysis by propidium iodide flow cytometry; type: cell-based; settings: two days incubation
Description: RKO, RKO E6, H1299 and MEF's were seeded and treated with designated concentration of MEL23. After two days incubation, cells were harvested and fixed in ethanol, followed by staining in a solution of 7.3 μM RNaseA and 98.7 μM propidium iodide (Sigma, St. Louis, Mo.). The samples were read on a FACS Calibur flow cytometer (BD Biosciences, San Jose, Calif.) and analyzed with CeliQuest software (BD Biosciences).

T1 sequence (Q00987 whole entry, the tested form may be a part): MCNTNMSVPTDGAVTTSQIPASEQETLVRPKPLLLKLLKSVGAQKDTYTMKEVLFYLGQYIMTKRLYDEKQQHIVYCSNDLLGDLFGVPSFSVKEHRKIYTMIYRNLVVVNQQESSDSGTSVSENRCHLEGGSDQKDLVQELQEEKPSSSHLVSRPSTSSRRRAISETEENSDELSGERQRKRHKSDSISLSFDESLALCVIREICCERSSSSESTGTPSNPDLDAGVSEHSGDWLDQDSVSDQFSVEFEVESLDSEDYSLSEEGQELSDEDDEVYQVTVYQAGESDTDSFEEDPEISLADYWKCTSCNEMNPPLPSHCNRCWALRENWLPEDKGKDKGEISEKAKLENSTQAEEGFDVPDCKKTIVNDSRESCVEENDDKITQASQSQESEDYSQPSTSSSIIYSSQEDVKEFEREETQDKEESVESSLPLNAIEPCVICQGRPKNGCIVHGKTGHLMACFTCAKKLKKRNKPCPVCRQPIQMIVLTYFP

SMILES | luminescence of the Mdm2-luciferase cell line [1] | pEC50 ([1]; EC50, Mdm2-luciferase cell line, 2 hours treatment) | p53 ubiquitination in cells (p53 ubiquitination) | etoposide-induced MdmX degradation (MdmX) | cell cycle [2] | EC50 ([1]; Mdm2-luciferase cell line, 2 hours treatment, read-out: EC50 (converted))
CCCCn1c(=O)[nH]c(O)c(C2NCCc3c2[nH]c2ccccc32)c1=O (stereo not shown) [MEL23] | increased the luminescence of the Mdm2-luciferase cell line to a similar level as with MG132 treatment | 5.12 | eliminated by pre-treatment | degradation could be prevented | causes G2 cell cycle arrest | 
Cn1c(O)c(C2NCCc3c2[nH]c2ccccc32)c(=O)n(C)c1=O (stereo not shown) [MEL24] | increased the luminescence of the Mdm2-luciferase cell line to a similar level as with MG132 treatment |  | eliminated by pre-treatment | degradation could be prevented | promotes G2 cell cycle arrest | 9.19 µM and 9.2 µM
